System: middle cerebral artery-occluded model rats
Assay: Fluorescence observation of brain disease site in cerebral infarction model rats
Format: in vivo, rat
Conditions: 100 mg/kg i.p., 4 hours after administration
Method: After 6 hours, 12 hours, 24 hours, and 42 hours from the preparation of middle cerebral artery-occluded model rats, δ-aminolevulinic acid hydrochloride was dissolved in physiological saline and intraperitoneally administered to the individual model rats in an amount of 100 mg/kg-body weight of rat. […] Moreover, it was confirmed that the red light site was in a cerebral infarction state.

Structure (SMILES): Cl.NCC(=O)CCC(=O)O [δ-aminolevulinic acid hydrochloride]
- metabolism to protoporphyrin IX in the brain: metabolized and converted into protoporphyrin IX

Reference: patent US8927532B2, “Therapeutic agent and diagnostic agent for mitochondrial dysfunction brain diseases” (SBI Pharmaceuticals Co., Ltd., priority 2007, dated 2015)
